Laboratory results taken from patent US11951094B2, “TLR2 modulator compounds, pharmaceutical compositions and uses thereof” (Axial Therapeutics, Inc., priority 2020, dated 2024).

Tests used:
TLR2 [1] = target: T1, TLR2 (Homo sapiens, UniProt O60603); assay: TLR2 antagonist screening assay, HEK Blue hTLR2 cells, competition with diprovocim; type: cell-based; design: host or cells: HEK Blue hTLR2 cells
Source text: TLRs signal through ligand-mediated dimerization or multimerization. TLR2 may partner with TLR1 or TLR6 to produce an agonist signal. Compounds that prevent agonist signaling, antagonists, may interfere with proper dimerization or with downstream signaling. The following assay was developed to identify and characterize novel TLR2 antagonists.
The in vitro TLR2 assay consists of a cell line that responds to TLR2 engagement by producing a factor that elicits a color change in the culture media and can be readily measured by various colorimetric detection methods. This assay enables the identification of existing and novel compounds that engage TLR2. Treating reporter cells with putative TLR2 antagonists will diminish the reporter response to TLR2 agonists.
TLR2 antagonists were screened for TLR2 binding and blocking with a competition assay. […] The assay was performed with Invivogen HEK Blue cells, which express the human TLR2 receptor as well as NFkB-inducible secreted Alkaline Phosphatase. Alkaline Phosphatase activity was proportional to TLR2 activation, and thus served as a colorimetric reporter.
HEK Blue hTLR2 cells (Invivogen) were grown in DMEM with 10% FBS (Seradigm). Cells were seeded at 40,000 cells/well in 96-well plates and incubated overnight to adhere. Media was replaced with 200 uL/well HEK Blue Detection Medium (Invivogen). […] Cells incubated for 16-24 hours, then absorbance at 600 nm was read on a SpectraMax M2 (Molecular Devices). […] Four parameter dose response curves were fit according to the following model, and IC50 values were reported: Y=Bottom+(Top-Bottom)/(1+(IC50/X)^HillSlope)
Where X is the antagonist concentration, Y is the normalized absorbance, Top and Bottom are the plateaus, IC50 is the concentration at half-maximal inhibition, and HillSlope is the slope factor.
• 1. HEK-Blue TLR2 cells are diluted in complete DME culture medium and plated into 96-well plates at 40,000 cells per well and cultured overnight. • 2. After 16-24 hours in culture, the media is removed and replaced with 200 microliters per well of HEK-Blue Detection media. • 3. TLR2 antagonists are diluted 100-fold from DMSO stocks into each well, yielding a final DMSO concentration of 1% in all wells. Reporter cells are treated for 1-2 hours, then treated with TLR2 agonist diluted to the EC50-70 concentration. • 4. Treated cells are cultured overnight and the following day are assayed in plate reader for Absorbance at 600 nanometer.

TLR2 [2] = target: T1, TLR2; assay: TLR2 agonist screening assay, HEK-Blue TLR2 reporter cell line (NF-kB-driven SEAP, absorbance at 600 nm); type: cell-based; design: host or cells: HEK-293 (HEK-Blue TLR2 reporter cell line); details: HEK-Blue TLR2 reporter cells, agonist mode
How it was run: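 TLR2 engagement is scored through NF-kB-induced secreted alkaline phosphatase in HEK-293 cells, detected by substrate colour change at 600 nm after overnight compound treatment at 1% final DMSO. Potency is expressed as EC50.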

T1 sequence (O60603 21-784): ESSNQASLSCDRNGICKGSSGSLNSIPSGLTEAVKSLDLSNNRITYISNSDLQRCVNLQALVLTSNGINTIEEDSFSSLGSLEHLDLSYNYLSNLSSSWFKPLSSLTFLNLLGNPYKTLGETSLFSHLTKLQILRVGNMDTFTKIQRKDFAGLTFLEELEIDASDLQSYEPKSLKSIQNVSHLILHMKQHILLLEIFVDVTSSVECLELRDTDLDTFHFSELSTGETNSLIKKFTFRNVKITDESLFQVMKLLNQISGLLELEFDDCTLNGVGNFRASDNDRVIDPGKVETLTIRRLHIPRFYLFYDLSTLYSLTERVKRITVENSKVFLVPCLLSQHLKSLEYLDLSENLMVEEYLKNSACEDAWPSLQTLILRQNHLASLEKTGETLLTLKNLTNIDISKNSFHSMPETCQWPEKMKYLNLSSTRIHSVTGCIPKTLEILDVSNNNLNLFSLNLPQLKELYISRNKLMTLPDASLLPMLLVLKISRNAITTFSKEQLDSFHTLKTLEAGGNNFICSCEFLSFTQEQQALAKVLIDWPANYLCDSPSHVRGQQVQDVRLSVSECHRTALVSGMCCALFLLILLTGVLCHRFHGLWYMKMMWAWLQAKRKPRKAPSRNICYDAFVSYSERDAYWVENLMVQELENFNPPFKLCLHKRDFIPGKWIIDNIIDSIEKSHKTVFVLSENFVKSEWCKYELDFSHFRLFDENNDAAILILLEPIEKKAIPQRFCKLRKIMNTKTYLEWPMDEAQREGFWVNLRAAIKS

| Compound | IC50 (TLR2 [1]) | EC50 (TLR2 [2]; average of all runs (Table 4)) | EC50 (TLR2 [2]; average of all runs (Table 3)) |
| --- | --- | --- | --- |
| CCCCCCCCCCCCCCN1CC(=O)N[C@@H](CNC(=O)c2ccc(C(=O)N3C[C@@H](C(=O)N[C@H]4C[C@@H]4c4ccccc4)[C@H](C(=O)N[C@H]4C[C@@H]4c4ccccc4)C3)cc2)C1=O [Compound 177, (3S,4S)-1-(4-((((S)-3,6-dioxo-4-tetradecylpiperazin-2-yl)methyl)carbamoyl)benzoyl)-N3,N4-bis((1S,2R)-2-phenylcyclopropyl)pyrrolidine-3,4-dicarboxamide] | 1 to 350 nM | > 1000 nM |  |
| CCCCCCCCCCCCCCNC(=O)C1CN(C(=O)c2ccc(C(=O)N3C[C@@H](C(=O)N[C@H]4C[C@@H]4c4ccccc4)[C@H](C(=O)N[C@H]4C[C@@H]4c4ccccc4)C3)cc2)C1 [Compound 007] | 351 to 1000 nM |  | > 1000 nM |
| CCCCCCCCCCCCCCNC(=O)[C@@H]1CN(C(=O)c2ccc(C(=O)N3C[C@@H](C(=O)N[C@H]4C[C@@H]4c4ccccc4)[C@H](C(=O)N[C@H]4C[C@@H]4c4ccccc4)C3)cc2)CCN1C(C)=O [Compound 162, (3S,4S)-1-(4-((S)-4-acetyl-3-(tetradecylcarbamoyl)piperazine-1-carbonyl)benzoyl)-N3,N4-bis((1S,2R)-2-phenylcyclopropyl) pyrrolidine-3,4-dicarboxamide] | 1 to 350 nM | > 1000 nM |  |

Second part, the molecule after the results:

| IC50 (TLR2 [1]) | EC50 (TLR2 [2]; average of all runs (Table 4)) | EC50 (TLR2 [2]; average of all runs (Table 3)) | Compound |
| --- | --- | --- | --- |
| 351 to 1000 nM | > 1000 nM |  | O=C(N[C@H]1C[C@@H]1c1ccccc1)[C@@H]1CN(C(=O)C23CCC(C(=O)N4C[C@@H](C(=O)N[C@H]5C[C@@H]5c5ccccc5)[C@H](C(=O)N[C@H]5C[C@@H]5c5ccccc5)C4)(CC2)CC3)C[C@H]1C(=O)N[C@H]1C[C@@H]1c1ccccc1 [Compound 077, (3S,3'S,4S,4'S)-1,1′-(bicyclo [2.2.2]octane-1,4-dicarbonyl) bis (N3,N4-bis((1S,2R)-2-phenylcyclopropyl)pyrrolidine-3,4-dicarboxamide)] |
| 1 to 350 nM | > 1000 nM |  | CCCCCCN1C(=O)[C@H](CNC(=O)c2ccc(C(=O)N3C[C@@H](C(=O)N[C@H]4C[C@@H]4c4ccccc4)[C@H](C(=O)N[C@H]4C[C@@H]4c4ccccc4)C3)cc2)NC(=O)[C@@H]1CCCCC [Compound 176, (3S,4S)-1-(4-((((2S,5S)-4-hexyl-3,6-dioxo-5-pentylpiperazin-2-yl)methyl)carbamoyl)benzoyl)-N3,N4-bis((1S,2R)-2-phenylcyclopropyl)pyrrolidine-3,4-dicarboxamide] |
